Reference: PubChem BioAssay (NCI)
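All cell lines were grown in 96-well plates and treated with compound for 48 hours. Abbreviation: GI50, concentration required for 50% inhibition of growth. TGI: total growth inhibition.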

How the values were obtained:
Assay in all cases: growth of human tumour cells (NCI), 48 h
[1] = system: SK-MEL-5 melanoma
[2] = system: CAKI-1 renal
[3] = system: HCT-15 colon
[4] = system: MDA-MB-435
[5] = system: BT-549 breast
[6] = system: UO-31 renal
[7] = system: COLO 205 colon
[8] = system: HOP-62 NSCLC
[9] = system: NCI-H522 lung
[10] = system: K-562 leukemia
[11] = system: SNB-19 CNS
[12] = system: PC-3 prostate
[13] = system: HOP-92 NSCLC
[14] = system: CCRF-CEM leukemia
[15] = system: NCI/ADR-RES ovarian
[16] = system: TK-10 renal
[17] = system: M14 melanoma
[18] = system: HT29 colon
[19] = system: IGROV1 ovarian
[20] = system: MALME-3M melanoma
[21] = system: EKVX NSCLC
[22] = system: UACC-257 melanoma
[23] = system: UACC-62 melanoma
[24] = system: OVCAR-4 ovarian
[25] = system: A549 NSCLC
[26] = system: HL-60(TB) leukemia
[27] = system: SF-539 CNS
[28] = system: DU-145 prostate
[29] = system: SK-MEL-2 melanoma
[30] = system: KM12 colon
[31] = system: OVCAR-8 ovarian
[32] = system: MDA-MB-231 breast
[33] = system: SN12C renal
[34] = system: NCI-H23 lung
[35] = system: HS 578T breast
[36] = system: 786-0 renal
[37] = system: MOLT-4 leukemia
[38] = system: SF-295 CNS
[39] = system: SR leukemia
[40] = system: SF-268 CNS
[41] = system: SNB-75 CNS
[42] = system: HCC-2998 colon
[43] = system: OVCAR-5 ovarian
[44] = system: NCI-H460 lung
[45] = system: RXF 393 renal
[46] = system: ACHN renal
[47] = system: A498 renal
[48] = system: SK-MEL-28 melanoma
[49] = system: RPMI-8226 leukemia
[50] = system: MCF7 breast
[51] = system: SW-620 colon
[52] = system: NCI-H226 lung
[53] = system: HCT-116 colon
[54] = system: U251 CNS
[55] = system: SK-OV-3 ovarian
[56] = system: T-47D breast

O=C(Nc1cccc(C(F)(F)F)c1)c1cc(-c2ccc(F)cc2F)ccc1O showed a GI50 [1] of 1.25 µM, a TGI [1] of 2.86 µM and a GI50 [2] of 1.79 µM. For the same compound, the TGI [2] was 5.69 µM, the GI50 [3] was 2.21 µM and the TGI [3] was 6.99 µM. For the same compound, the GI50 [4] was 2.5 µM, the TGI [4] was 7.11 µM and the GI50 [5] was 2.13 µM. The TGI [5] was 7.24 µM, the GI50 [6] was 2.46 µM and the TGI [6] was 10.6 µM. For the same compound, the GI50 [7] was 3.22 µM, the TGI [7] was 10.2 µM and the GI50 [8] was 2.93 µM. For the same compound, the TGI [8] was 9.31 µM, the GI50 [9] was 1.32 µM and the TGI [9] was 9.58 µM. It also gave a GI50 [10] of 2.23 µM, a TGI [10] greater than 100 µM and a GI50 [11] of 3.08 µM. It also gave a TGI [11] of 73.5 µM, a GI50 [12] of 2.89 µM and a TGI [12] of 15.1 µM. The GI50 [13] was 0.824 µM, the TGI [13] was 4.28 µM and the GI50 [14] was 2.97 µM. For the same compound, the TGI [14] was 48.6 µM, the GI50 [15] was 2.57 µM and the TGI [15] was 8.63 µM. It also gave a GI50 [16] of 4.55 µM, a TGI [16] of 30.5 µM and a GI50 [17] of 3.02 µM. For the same compound, the TGI [17] was 10.5 µM, the GI50 [18] was 3.27 µM and the TGI [18] was 16.9 µM. For the same compound, the GI50 [19] was 2.82 µM, the TGI [19] was 17 µM and the GI50 [20] was 1.77 µM. The TGI [20] was 4.65 µM, the GI50 [21] was 2.28 µM and the TGI [21] was 8.98 µM. It also gave a GI50 [22] of 1.5 µM, a TGI [22] of 6.97 µM and a GI50 [23] of 1.16 µM. For the same compound, the TGI [23] was 4.22 µM, the GI50 [24] was 3.11 µM and the TGI [24] was 95.7 µM. It also gave a GI50 [25] of 3.26 µM, a TGI [25] greater than 100 µM and a GI50 [26] of 2.06 µM. The TGI [26] was 4.97 µM, the GI50 [27] was 3.05 µM and the TGI [27] was 11 µM. The GI50 [28] was 3.55 µM, the TGI [28] was greater than 100 µM and the GI50 [29] was 1.46 µM. It also gave a TGI [29] of 4.95 µM, a GI50 [30] of 2.44 µM and a TGI [30] of 6.12 µM. The GI50 [31] was 2.92 µM, the TGI [31] was greater than 100 µM and the GI50 [32] was 2.01 µM. The TGI [32] was 5.17 µM, the GI50 [33] was 1.99 µM and the TGI [33] was 7.61 µM. It also gave a GI50 [34] of 1.89 µM, a TGI [34] of 5.58 µM and a GI50 [35] of 2.47 µM. It also gave a TGI [35] of 9.63 µM, a GI50 [36] of 3.27 µM and a TGI [36] of 12 µM. It also gave a GI50 [37] of 2.13 µM, a TGI [37] of 5.58 µM and a GI50 [38] of 1.75 µM. For the same compound, the TGI [38] was 3.57 µM, the GI50 [39] was 2.76 µM and the TGI [39] was 14 µM. The GI50 [40] was 2.67 µM, the TGI [40] was 16.7 µM and the GI50 [41] was 1.52 µM. For the same compound, the TGI [41] was 4.25 µM, the GI50 [42] was 3.07 µM and the TGI [42] was 13.2 µM. The GI50 [43] was 3.41 µM, the TGI [43] was 26.4 µM and the GI50 [44] was 2.67 µM. The TGI [44] was 13.3 µM, the GI50 [45] was 2.06 µM and the TGI [45] was 6.22 µM. The GI50 [46] was 2.76 µM, the TGI [46] was 8.67 µM and the GI50 [47] was 0.923 µM. The TGI [47] was 3.21 µM, the GI50 [48] was 2.17 µM and the TGI [48] was 7.58 µM. For the same compound, the GI50 [49] was 1.44 µM, the TGI [49] was 5.28 µM and the GI50 [50] was 2.18 µM. It also gave a TGI [50] of 9.29 µM, a GI50 [51] of 3.61 µM and a TGI [51] of 14.5 µM. It also gave a GI50 [52] of 2.01 µM, a TGI [52] of 5.34 µM and a GI50 [53] of 1.89 µM. For the same compound, the TGI [53] was 4.98 µM, the GI50 [54] was 2.99 µM and the TGI [54] was 17.5 µM. The GI50 [55] was 2.43 µM, the TGI [55] was 8.62 µM and the GI50 [56] was 2.2 µM. It also gave a TGI [56] of 8.64 µM.
In the case of C#C[C@]1(O)CC[C@H]2[C@@H]3CC=C4c5sc(Nc6cc(Cl)ccn6)nc5CC[C@]4(C)[C@H]3CC[C@@]21C, the GI50 [1] is reported as 1.74 µM, the TGI [1] is reported as 3.32 µM and the GI50 [2] is reported as 0.725 µM. The TGI [2] was 2.2 µM, the GI50 [3] was 1.01 µM and the TGI [3] was 4.88 µM. The GI50 [4] was 1.06 µM, the TGI [4] was 3.09 µM and the GI50 [5] was 0.627 µM. The TGI [5] was 2.36 µM, the GI50 [6] was 0.383 µM and the TGI [6] was 1.61 µM. The GI50 [7] was 1.66 µM, the TGI [7] was 3.42 µM and the GI50 [8] was 0.759 µM. The TGI [8] was 2.67 µM, the GI50 [9] was 1.83 µM and the TGI [9] was 4.08 µM. For the same compound, the GI50 [10] was 0.366 µM, the TGI [10] was 2.45 µM and the GI50 [11] was 1.23 µM. The GI50 [12] was 0.386 µM, the TGI [12] was 3.64 µM and the GI50 [13] was 1.53 µM. The TGI [13] was 3.37 µM, the GI50 [14] was 0.463 µM and the TGI [14] was greater than 22.5 µM. The GI50 [15] was 1.95 µM, the TGI [15] was 6.65 µM and the GI50 [16] was 2.21 µM. For the same compound, the TGI [16] was 11.4 µM, the GI50 [17] was 0.736 µM and the TGI [17] was 2.27 µM. For the same compound, the GI50 [18] was 1.42 µM, the TGI [18] was 3.15 µM and the GI50 [19] was 1.78 µM. The TGI [19] was greater than 21.2 µM, the GI50 [20] was 0.663 µM and the TGI [20] was 2.1 µM. The GI50 [21] was 1.08 µM, the TGI [21] was 4.79 µM and the GI50 [22] was 0.727 µM. The TGI [22] was 2.2 µM, the GI50 [23] was 0.846 µM and the TGI [23] was 3.9 µM. For the same compound, the GI50 [24] was 2.8 µM, the TGI [24] was greater than 26.2 µM and the GI50 [25] was 1.18 µM. It also gave a TGI [25] of 2.61 µM, a GI50 [26] of 0.402 µM and a TGI [26] of 2.07 µM. It also gave a GI50 [27] of 0.214 µM, a TGI [27] of 0.741 µM and a GI50 [28] of 2.53 µM. It also gave a TGI [28] greater than 100 µM, a GI50 [29] of 1.43 µM and a TGI [29] of 3.95 µM. It also gave a GI50 [30] of 1.63 µM, a TGI [30] of 8.59 µM and a GI50 [31] of 1.4 µM. For the same compound, the TGI [31] was 3.19 µM, the GI50 [32] was 1.58 µM and the TGI [32] was 4.61 µM. For the same compound, the GI50 [33] was 3.36 µM, the TGI [33] was greater than 100 µM and the GI50 [34] was 1.35 µM. The TGI [34] was 4.71 µM, the GI50 [35] was 0.278 µM and the TGI [35] was 1.17 µM. It also gave a GI50 [36] of 0.227 µM, a TGI [36] of 0.594 µM and a GI50 [37] of 0.321 µM. It also gave a TGI [37] of 1.95 µM, a GI50 [39] of 0.308 µM and a TGI [39] of 1.38 µM. The GI50 [40] was 1.45 µM, the TGI [40] was 4.55 µM and the GI50 [41] was 0.637 µM. It also gave a GI50 [42] of 2.19 µM, a TGI [42] of 5.52 µM and a GI50 [43] of 2.14 µM. The TGI [43] was greater than 20.4 µM, the GI50 [44] was 0.922 µM and the TGI [44] was 2.67 µM. It also gave a GI50 [45] of 0.124 µM, a TGI [45] of 0.38 µM and a GI50 [46] of 0.834 µM. For the same compound, the GI50 [47] was 0.828 µM, the TGI [47] was 2.28 µM and the GI50 [48] was 0.317 µM. For the same compound, the TGI [48] was 1.1 µM, the GI50 [49] was 0.212 µM and the TGI [49] was 0.749 µM. It also gave a GI50 [50] of 0.516 µM, a TGI [50] of 3.43 µM and a GI50 [51] of 1.09 µM. For the same compound, the TGI [51] was 2.68 µM, the GI50 [52] was 2.14 µM and the TGI [52] was 9.84 µM. The GI50 [53] was 0.784 µM, the TGI [53] was 2.35 µM and the GI50 [54] was 0.425 µM. For the same compound, the TGI [54] was 1.67 µM, the GI50 [55] was 0.663 µM and the TGI [55] was 2.17 µM. The GI50 [56] was 2.44 µM and the TGI [56] was greater than 26.3 µM.
